According to US20250230193A1, “CYCLIC COMPOUND HAVING SELECTIVE KRAS INHIBITORY EFFECT ON HRAS AND NRAS” (CHUGAI SEIYAKU KABUSHIKI KAISHA, priority 2022, published 2025):
*1 amine or outer side, *2 acyl side, *3 side chain or, on linkers, in order; H or OH if unused. Where a SMILES comes first, the peptide text is derived from it. Bridges are numbered along the chain shown (N, C = ends). [ ]: non-standard residue; d: D form. The star is where a group is joined. hPhe(3-Cl-4-CF3) = N[C@@H](CCc1ccc(C(F)(F)F)c(Cl)c1)C(=O)O; X32 = COCCN([C@@H](Cc1ccc(C(F)(F)F)cc1)C(=O)[*:2])[*:1]; NPrPhe(4-CF3) = CCCN[C@@H](Cc1ccc(C(F)(F)F)cc1)C(=O)O; Pro(4-spirocPr) = O=C(O)[C@@H]1CC2(CC2)CN1; NMeGly(cPent) = CN[C@H](C(=O)O)C1CCCC1; NMeD = CN[C@@H](CC(=O)O)C(=O)O; NMeL = CN[C@@H](CC(C)C)C(=O)O; Morpholide = C1CN(*)CCO1; Ac5c = NC1(C(=O)O)CCCC1; Aze = O=C(O)[C@@H]1CCN1; Ac4c = NC1(C(=O)O)CCC1; Sar = CNCC(=O)O

Experiments:
[1] = target: GDP-bound NRAS wild-type protein (Homo sapiens, UniProt P01111); assay: Binding to NRAS by surface plasmon resonance (SPR), Single Cycle Kinetics; settings: SPR; for NRAS/KRAS (ratio of KD value with respect to NRAS to KD value with respect to KRAS): GDP-bound NRAS wild-type vs GDP-bound KRAS wild-type
[2] = target: GDP-bound HRAS wild-type protein (Homo sapiens, UniProt P01112); assay: Binding to HRAS by surface plasmon resonance (SPR), Single Cycle Kinetics; settings: SPR; for HRAS/KRAS (ratio of KD value with respect to HRAS to KD value with respect to KRAS): GDP-bound HRAS wild-type vs GDP-bound KRAS wild-type
GDP-bound HRAS wild-type protein, sequence (P01112 whole entry): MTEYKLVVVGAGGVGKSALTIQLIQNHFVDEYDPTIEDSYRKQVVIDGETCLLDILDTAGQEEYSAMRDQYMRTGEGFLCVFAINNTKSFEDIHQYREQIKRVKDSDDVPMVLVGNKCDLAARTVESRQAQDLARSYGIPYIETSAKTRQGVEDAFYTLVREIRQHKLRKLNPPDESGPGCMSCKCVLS

GDP-bound NRAS wild-type protein, sequence (P01111 whole entry): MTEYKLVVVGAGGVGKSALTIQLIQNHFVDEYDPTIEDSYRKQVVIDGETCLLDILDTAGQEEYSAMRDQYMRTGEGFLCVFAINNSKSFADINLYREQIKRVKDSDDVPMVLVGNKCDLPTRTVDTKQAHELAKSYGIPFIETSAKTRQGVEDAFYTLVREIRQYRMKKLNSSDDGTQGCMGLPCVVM

CCO[C@@H]1C[C@H]2C(=O)NC3(CCC3)C(=O)N(C)[C@@H](C3CCCC3)C(=O)N(C)[C@H](C(=O)N(C)C)CC(=O)N(C)[C@@H](Cc3ccc(F)cc3)C(=O)N[C@@H]([C@@H](C)CC)C(=O)N(C)CC(=O)N(C)[C@H]3CCCCCN(C3=O)[C@@H](Cc3ccc(C(F)(F)F)cc3)C(=O)N(C)CC(=O)N[C@@H](CCc3cc(F)c(C(F)(F)F)c(F)c3)C(=O)N2C1 [PP0936]
NRAS/KRAS (ratio of KD value with respect to NRAS to KD value with respect to KRAS) ([1]; KD ratio): B (a compound having 3 or more and less than 10 is denoted as B) | HRAS/KRAS (ratio of KD value with respect to HRAS to KD value with respect to KRAS) ([2]; KD ratio): B (a compound having 3 or more and less than 10 is denoted as B)

CCO[C@@H]1C[C@H]2C(=O)NC3(CCC3)C(=O)N(C)[C@@H](C(CC)CC)C(=O)N(C)[C@H](C(=O)N(C)C)CC(=O)N(C)[C@@H](CC(C)C)C(=O)N[C@@H]([C@@H](C)CC)C(=O)N(C)CC(=O)N(C)[C@H]3C/C=C\CCN(C3=O)[C@@H](Cc3ccc(C(F)(F)F)cc3)C(=O)N(C)CC(=O)N[C@@H](CCc3cc(F)c(C(F)(F)F)c(F)c3)C(=O)N2C1 [PP1201]
NRAS/KRAS (ratio of KD value with respect to NRAS to KD value with respect to KRAS) ([1]; KD ratio): AA (a compound having 20 or more is denoted as AA) | HRAS/KRAS (ratio of KD value with respect to HRAS to KD value with respect to KRAS) ([2]; KD ratio): A (a compound having 10 or more and less than 20 is denoted as A)

CCCN1C(=O)CN(C)C(=O)[C@@H]2CCN2C(=O)[C@H]([C@@H](C)CC)NC(=O)[C@H](CC(C)C)N(C)C(=O)C[C@@H](C(=O)N2CCOCC2)N(C)C(=O)[C@H](C2CCCC2)N(C)C(=O)C2(CCCC2)NC(=O)[C@@H]2CC3(CC3)CN2C(=O)[C@H](CCc2ccc(C(F)(F)F)c(Cl)c2)NC(=O)CN(C)C(=O)[C@@H]1Cc1ccc(C(F)(F)F)cc1 [PP0308] ([NMeL]I[Aze][Sar][NPrPhe(4-CF3)][Sar][hPhe(3-Cl-4-CF3)][Pro(4-spirocPr)][Ac5c][NMeGly(cPent)][NMeD]-Morpholide; lactam N-11)
NRAS/KRAS (ratio of KD for GDP-bound NRAS wild-type to KD for KRAS) ([1]; KD ratio NRAS/KRAS): B (a compound having 3 or more and less than 10 is denoted as B) | HRAS/KRAS (ratio of KD for GDP-bound HRAS wild-type to KD for KRAS) ([2]; KD ratio HRAS/KRAS): B (a compound having 3 or more and less than 10 is denoted as B)

CC[C@H](C)[C@@H]1NC(=O)[C@H](CC(C)C)N(C)C(=O)C[C@@H](C(=O)N2CCOCC2)N(C)C(=O)[C@H](C2CCCC2)N(C)C(=O)C2(CCCC2)NC(=O)[C@@H]2CCCN2C(=O)[C@H](CCc2ccc(C(F)(F)F)c(Cl)c2)NC(=O)CN(C)C(=O)[C@H](Cc2ccc(C(F)(F)F)cc2)N(CCOC)C(=O)CN(C)C(=O)CN(C)C1=O [PP0132] ([NMeL]I[Sar][Sar][X32][Sar][hPhe(3-Cl-4-CF3)]P[Ac5c][NMeGly(cPent)][NMeD]-Morpholide; lactam N-11)
NRAS/KRAS (ratio of KD for GDP-bound NRAS wild-type to KD for KRAS) ([1]; KD ratio NRAS/KRAS): C (A compound having a KD ratio of 0.1 or more and less than 3 is denoted as C) | HRAS/KRAS (ratio of KD for GDP-bound HRAS wild-type to KD for KRAS) ([2]; KD ratio HRAS/KRAS): C (A compound having a KD ratio of 0.1 or more and less than 3 is denoted as C)

CCCN1C(=O)[C@@H]2CCN2C(=O)CN(C)C(=O)[C@H]([C@@H](C)CC)NC(=O)[C@H](CC(C)C)N(C)C(=O)C[C@@H](C(=O)N2CCOCC2)N(C)C(=O)[C@H](C2CCCC2)N(C)C(=O)C2(CCC2)NC(=O)[C@@H]2CCCN2C(=O)[C@H](CCc2ccc(C(F)(F)F)c(Cl)c2)NC(=O)CN(C)C(=O)[C@@H]1Cc1ccc(C(F)(F)F)cc1 [PP0407] ([NMeL]I[Sar][Aze][NPrPhe(4-CF3)][Sar][hPhe(3-Cl-4-CF3)]P[Ac4c][NMeGly(cPent)][NMeD]-Morpholide; lactam N-11)
NRAS/KRAS (ratio of KD for GDP-bound NRAS wild-type to KD for KRAS) ([1]; KD ratio NRAS/KRAS): C (A compound having a KD ratio of 0.1 or more and less than 3 is denoted as C) | HRAS/KRAS (ratio of KD for GDP-bound HRAS wild-type to KD for KRAS) ([2]; KD ratio HRAS/KRAS): B (a compound having 3 or more and less than 10 is denoted as B)

CC[C@H](C)[C@@H]1NC(=O)[C@H](COC)N(C)C(=O)C[C@@H](C(=O)N(C)C)N(C)C(=O)[C@H](C2CCCC2)N(C)C(=O)C2(CC(C)(C)C2)NC(=O)[C@@H]2C[C@@H](OC(C)C)CN2C(=O)[C@H](CCc2ccc(Cl)c(Cl)c2)NC(=O)CN(C)C(=O)[C@H](CC2CCCCC2)N2CC/C=C\C[C@@H](C2=O)N(C)C(=O)CN(C2CC2)C1=O [PP2513]
NRAS/KRAS (ratio of KD value with respect to NRAS to KD value with respect to KRAS) [1]: A (a compound having 10 or more and less than 20 is denoted as A) | HRAS/KRAS (ratio of KD value with respect to HRAS to KD value with respect to KRAS) [2]: A (a compound having 10 or more and less than 20 is denoted as A)

CC[C@H](C)[C@@H]1NC(=O)[C@H](CC(C)C)N(C)C(=O)C[C@@H](C(=O)N2CCOCC2)N(C)C(=O)[C@H](C2CCCC2)N(C)C(=O)C2(CCC2)NC(=O)[C@@H]2CCCN2C(=O)[C@H](CCc2cc(F)c(C(F)(F)F)c(F)c2)NC(=O)CN(C)C(=O)[C@H](Cc2ccc(C(F)(F)F)cc2)N2CCCCC[C@@H](C2=O)N(C)C(=O)CN(C)C1=O [PP0497]
NRAS/KRAS (ratio of KD value with respect to GDP-bound NRAS wild-type protein to KD value with respect to KRAS) ([1]; KD ratio NRAS/KRAS): B (a compound having 3 or more and less than 10 is denoted as B) | HRAS/KRAS (ratio of KD value with respect to GDP-bound HRAS wild-type protein to KD value with respect to KRAS) ([2]; KD ratio HRAS/KRAS): B (a compound having 3 or more and less than 10 is denoted as B)

CCCCO[C@H]1CCN2C(=O)[C@H](CCc3cc(F)c(C(F)(F)F)c(F)c3)NC(=O)CN(C)C(=O)[C@H](Cc3ccc(C(F)(F)F)cc3)N3CCCC[C@@H](C3=O)N(C)C(=O)CN(C)C(=O)[C@H]([C@@H](C)CC)NC(=O)[C@H](CC(C)C)N(C)C(=O)C[C@@H](C(=O)N3CCOCC3)N(C)C(=O)[C@H](C3CCCC3)N(C)C(=O)C3(CCC3)NC(=O)[C@H]12 [PP1071]
NRAS/KRAS (ratio of KD value with respect to NRAS to KD value with respect to KRAS) ([1]; KD ratio): B (a compound having 3 or more and less than 10 is denoted as B) | HRAS/KRAS (ratio of KD value with respect to HRAS to KD value with respect to KRAS) ([2]; KD ratio): B (a compound having 3 or more and less than 10 is denoted as B)
